Key:
[1] = Whittle's method, writhing (acetic acid); type: in vivo, Male ICR-Mice; conditions: 50 mg/kg P.O., mice; 0.6% acetic acid i.p.
Description: (§1) Male ICR-Mice (weighting 25-35 g.), one group being 12 mice, fasted overnight were used in this test. The sample was orally administered, and 20 minutes after, 5 ml./Kg. of 0.4% Evance blue was injected intravenously and 10 minutes thereafter, 10 ml./Kg. of 0.6% acetic acid was injected intraperitoneally. The number of writhings after 20 minutes following the administration of acetic acid was recorded and after an additional 10 minutes, the mice were killed by dislocation of the neck, the dye leaked in the abdominal cavity was washed out with 5 ml. of 0.9% saline to make the total amount 10 ml., and thereafter furs, blood corpuscles, etc., intermingled were removed by centrifugal separation at 3,000 r.p.m. for 5 minutes. Furthermore, to prevent turbidity caused by protein, 0.1 ml. of an aqueous 0.1 normal sodium hydroxide was added and then the absorbance at 590 nm was measured. The inhibition ratio of the sample administered rat groups to control groups was calculated.

[2] = 50 mg/kg
Description: as §1

[3] = Carrageenin-induced edema; type: in vivo, Male Wister rats; conditions: oral, 1 h before carrageenin, rat hind paw, 3 h
Description: (a) Carrageenin-induced edema
Male Wister rats (weighing 130-170 g.), one group being 6 rats, fasted overnight were used. According to Winter's method [Proc. Soc. Exp. Biol. Med., 111,544 (1962)], 0.1 ml. of 1% carrageenin [Iwai Kagaku Yakuhin K.K. Seakem] suspension in 0.9% saline was injected into the planter tissue of the left hind paw. After 3 hours, each rat was sacrificed by chloroform and the hind paw was cut and weighed immediately. By using the value obtained by subtracting the weight of the untreated hind paw from the weight of the hind paw having injected therein the carrageenin as the weight of edema, the inhibitory ratio of the sample administered rat groups to control groups was calculated. The sample was orally administered before one hour of the injection of Carrageenin.
In addition, the test samples used in the aforesaid tests (a) and (b) were prepared by suspending the test compounds in an aqueous 0.5% methyl cellulose solutions.

| SMILES | Inhibition (%) Writhing [1] [%] | Inhibition (%) Permeability [2] [%] | Inhibition (Carrageenin-induced edema) ([3]; 100 mg/kg) [%] | Inhibition (Carrageenin-induced edema) ([3]; 50 mg/kg) [%] |
| --- | --- | --- | --- | --- |
| Cc1c(N(C)C)c(=O)n(-c2ccccc2)n1C [Aminopyrine, reference compound] | 58.1 | 41.7 | – | – |
| CSc1cc2ccccc2c(=O)n1C [Ex. 1, 2-methyl-3-methylthio-1-oxo-1,2-dihydroisoquinoline] | – | – | 57.3 | – |
| CCn1c(SC)cc2ccccc2c1=O [Ex. 2, 2-ethyl-3-methylthio-1-oxo-1,2-dihydroisoquinoline] | – | – | – | 38.5 |
| Cn1c([S+](C)[O-])cc2ccccc2c1=O (centres unmarked) [Ex. 4, 2-methyl-3-methylsulfinyl-1-oxo-1,2-dihydroisoquinoline] | 39.7 | 42.8 | 68.2 | 55.8 |
| Cn1c(S(C)(=O)=O)cc2ccccc2c1=O [Ex. 5, 2-methyl-3-methylsulfonyl-1-oxo-1,2-dihydroisoquinoline] | 45.8 | 47.1 | 68.1 | 50.7 |
| CCCCC1C(=O)N(c2ccccc2)N(c2ccccc2)C1=O [Phenyl butazone, reference compound] | – | – | 51.2 | 44.5 |
